Remaining binding data for one compound are collected here from publication PMC6199309, “A therapeutic approach to pantothenate kinase associated neurodegeneration” (Nature Communications, 2018).

Assay in all cases: KINOMEscan
Type in all cases: binding
Common to all, as to settings: read-out: %Ctrl @ 10000nM

For assay [1], the target named is T1, RSK2(Kin.Dom.1-N-terminal) (Homo sapiens, UniProt P51812).
T1 construct: RSK2(Kin.Dom.1-N-terminal); purchased DiscoverX KINOMEscan

Another assay has as its target T2, TEC (Homo sapiens, UniProt P42680).
T2 construct: purchased DiscoverX KINOMEscan

In another assay the target is T3, STK39 (Homo sapiens, UniProt Q9UEW8).
T3 construct: purchased DiscoverX KINOMEscan

In assay [2] the target is T4, TYK2(JH1domain-catalytic) (Homo sapiens, UniProt P29597).
T4 construct: TYK2(JH1domain-catalytic); DNA label for qPCR (T7 phage fusion or DNA tag); purchased DiscoverX scanMAX; host or cells: E. coli BL21-derived (T7 phage) or HEK-293

A further assay addresses T5, HCK (Homo sapiens, UniProt P08631).
T5 construct: purchased DiscoverX KINOMEscan

The next assay concerns the target T6, PIKFYVE (Homo sapiens, UniProt Q9Y2I7).
T6 construct: purchased DiscoverX KINOMEscan

For another assay, the target named is T7, PIK3CD (Homo sapiens, UniProt O00329).
T7 construct: purchased DiscoverX KINOMEscan

A further assay addresses T8, MST1R (Homo sapiens, UniProt Q04912).
T8 construct: purchased DiscoverX KINOMEscan

The target in the next assay is T9, ERK4 (Homo sapiens, UniProt P31152).
T9 construct: purchased DiscoverX KINOMEscan

The next assay addresses T10, AKT2 (Homo sapiens, UniProt P31751).
T10 construct: purchased DiscoverX KINOMEscan

For a further assay, the target named is T11, BMPR1B (Homo sapiens, UniProt O00238).
T11 construct: purchased DiscoverX KINOMEscan
T11 sequence (O00238 14-502): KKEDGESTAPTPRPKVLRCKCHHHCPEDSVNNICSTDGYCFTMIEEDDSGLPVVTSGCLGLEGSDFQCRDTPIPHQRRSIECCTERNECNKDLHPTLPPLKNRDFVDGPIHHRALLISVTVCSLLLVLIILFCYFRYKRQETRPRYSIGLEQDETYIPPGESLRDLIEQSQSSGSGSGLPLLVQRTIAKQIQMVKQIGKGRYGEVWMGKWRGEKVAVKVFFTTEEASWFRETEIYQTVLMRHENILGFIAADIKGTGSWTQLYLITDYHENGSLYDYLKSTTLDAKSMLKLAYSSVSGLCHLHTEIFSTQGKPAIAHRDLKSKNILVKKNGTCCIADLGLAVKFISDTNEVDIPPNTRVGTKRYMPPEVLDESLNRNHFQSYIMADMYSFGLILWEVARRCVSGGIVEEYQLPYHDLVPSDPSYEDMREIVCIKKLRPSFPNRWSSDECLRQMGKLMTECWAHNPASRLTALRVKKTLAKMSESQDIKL

T4 sequence (P29597 897-1176 limits assumed): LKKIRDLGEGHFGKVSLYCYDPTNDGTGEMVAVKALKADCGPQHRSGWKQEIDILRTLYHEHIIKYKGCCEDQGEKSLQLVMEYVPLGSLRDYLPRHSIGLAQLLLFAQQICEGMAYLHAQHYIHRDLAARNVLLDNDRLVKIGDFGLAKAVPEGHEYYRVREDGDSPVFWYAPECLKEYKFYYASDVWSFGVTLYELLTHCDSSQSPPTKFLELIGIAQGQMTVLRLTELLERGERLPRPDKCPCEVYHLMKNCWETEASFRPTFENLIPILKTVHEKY
T8 sequence (Q04912 25-1400): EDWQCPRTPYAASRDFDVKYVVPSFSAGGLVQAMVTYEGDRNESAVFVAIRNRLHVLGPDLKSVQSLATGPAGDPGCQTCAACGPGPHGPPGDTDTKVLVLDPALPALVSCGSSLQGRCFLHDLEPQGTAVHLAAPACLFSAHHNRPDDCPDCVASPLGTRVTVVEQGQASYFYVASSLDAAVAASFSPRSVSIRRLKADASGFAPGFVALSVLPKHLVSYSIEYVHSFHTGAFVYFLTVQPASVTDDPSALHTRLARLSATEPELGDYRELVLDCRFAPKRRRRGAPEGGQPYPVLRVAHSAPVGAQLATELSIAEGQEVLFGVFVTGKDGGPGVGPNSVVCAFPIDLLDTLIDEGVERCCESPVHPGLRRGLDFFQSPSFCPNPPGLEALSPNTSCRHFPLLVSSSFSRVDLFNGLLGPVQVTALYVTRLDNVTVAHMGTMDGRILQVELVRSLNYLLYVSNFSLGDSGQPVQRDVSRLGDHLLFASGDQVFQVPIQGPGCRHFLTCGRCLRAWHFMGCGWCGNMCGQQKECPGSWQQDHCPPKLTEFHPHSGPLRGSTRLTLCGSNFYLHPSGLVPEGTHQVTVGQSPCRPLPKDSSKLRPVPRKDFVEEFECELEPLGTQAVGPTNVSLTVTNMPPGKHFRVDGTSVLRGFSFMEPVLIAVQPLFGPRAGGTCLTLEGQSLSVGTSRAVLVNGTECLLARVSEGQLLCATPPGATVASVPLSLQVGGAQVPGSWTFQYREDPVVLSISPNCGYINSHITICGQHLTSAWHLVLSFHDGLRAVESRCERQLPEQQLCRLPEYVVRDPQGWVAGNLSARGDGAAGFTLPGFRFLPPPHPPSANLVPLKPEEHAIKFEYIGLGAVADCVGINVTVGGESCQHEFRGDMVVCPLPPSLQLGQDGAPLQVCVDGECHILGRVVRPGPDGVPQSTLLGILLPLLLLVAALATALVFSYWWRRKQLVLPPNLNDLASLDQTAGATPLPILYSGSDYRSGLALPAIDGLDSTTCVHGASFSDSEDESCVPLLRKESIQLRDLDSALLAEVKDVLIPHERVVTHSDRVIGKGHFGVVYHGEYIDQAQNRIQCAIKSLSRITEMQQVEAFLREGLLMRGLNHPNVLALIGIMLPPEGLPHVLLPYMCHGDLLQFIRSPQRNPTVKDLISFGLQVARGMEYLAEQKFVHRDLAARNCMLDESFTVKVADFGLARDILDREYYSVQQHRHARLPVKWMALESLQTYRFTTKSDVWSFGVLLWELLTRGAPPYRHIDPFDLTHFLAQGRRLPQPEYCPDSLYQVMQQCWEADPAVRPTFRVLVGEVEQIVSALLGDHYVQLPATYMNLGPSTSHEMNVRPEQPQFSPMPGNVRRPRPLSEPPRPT
T7 sequence (O00329 whole entry): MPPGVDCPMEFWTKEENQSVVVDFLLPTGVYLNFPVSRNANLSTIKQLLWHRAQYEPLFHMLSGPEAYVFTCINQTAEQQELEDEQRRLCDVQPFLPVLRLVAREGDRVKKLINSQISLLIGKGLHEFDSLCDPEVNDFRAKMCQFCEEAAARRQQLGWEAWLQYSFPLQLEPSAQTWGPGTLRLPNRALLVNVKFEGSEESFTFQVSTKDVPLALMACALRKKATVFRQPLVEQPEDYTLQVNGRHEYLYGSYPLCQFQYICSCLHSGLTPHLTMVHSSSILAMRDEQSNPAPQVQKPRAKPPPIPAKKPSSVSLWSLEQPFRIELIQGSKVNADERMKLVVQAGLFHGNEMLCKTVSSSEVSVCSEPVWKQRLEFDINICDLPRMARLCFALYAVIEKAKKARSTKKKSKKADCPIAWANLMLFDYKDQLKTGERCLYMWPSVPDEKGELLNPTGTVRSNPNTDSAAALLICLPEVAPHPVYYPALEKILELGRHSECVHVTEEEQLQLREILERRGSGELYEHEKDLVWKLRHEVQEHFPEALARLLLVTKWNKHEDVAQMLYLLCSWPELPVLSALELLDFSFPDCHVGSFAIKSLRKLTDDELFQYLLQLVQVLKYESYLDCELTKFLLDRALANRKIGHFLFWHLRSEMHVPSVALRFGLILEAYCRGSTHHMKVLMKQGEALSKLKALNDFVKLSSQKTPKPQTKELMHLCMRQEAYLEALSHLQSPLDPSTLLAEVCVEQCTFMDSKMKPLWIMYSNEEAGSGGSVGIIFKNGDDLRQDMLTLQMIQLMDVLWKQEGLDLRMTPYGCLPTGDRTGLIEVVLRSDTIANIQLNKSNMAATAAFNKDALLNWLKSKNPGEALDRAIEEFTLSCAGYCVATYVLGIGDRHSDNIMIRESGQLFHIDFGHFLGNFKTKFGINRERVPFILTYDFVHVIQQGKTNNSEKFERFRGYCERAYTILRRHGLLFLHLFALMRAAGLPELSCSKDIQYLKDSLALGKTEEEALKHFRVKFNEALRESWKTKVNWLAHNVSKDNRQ
T2 sequence (P42680 whole entry): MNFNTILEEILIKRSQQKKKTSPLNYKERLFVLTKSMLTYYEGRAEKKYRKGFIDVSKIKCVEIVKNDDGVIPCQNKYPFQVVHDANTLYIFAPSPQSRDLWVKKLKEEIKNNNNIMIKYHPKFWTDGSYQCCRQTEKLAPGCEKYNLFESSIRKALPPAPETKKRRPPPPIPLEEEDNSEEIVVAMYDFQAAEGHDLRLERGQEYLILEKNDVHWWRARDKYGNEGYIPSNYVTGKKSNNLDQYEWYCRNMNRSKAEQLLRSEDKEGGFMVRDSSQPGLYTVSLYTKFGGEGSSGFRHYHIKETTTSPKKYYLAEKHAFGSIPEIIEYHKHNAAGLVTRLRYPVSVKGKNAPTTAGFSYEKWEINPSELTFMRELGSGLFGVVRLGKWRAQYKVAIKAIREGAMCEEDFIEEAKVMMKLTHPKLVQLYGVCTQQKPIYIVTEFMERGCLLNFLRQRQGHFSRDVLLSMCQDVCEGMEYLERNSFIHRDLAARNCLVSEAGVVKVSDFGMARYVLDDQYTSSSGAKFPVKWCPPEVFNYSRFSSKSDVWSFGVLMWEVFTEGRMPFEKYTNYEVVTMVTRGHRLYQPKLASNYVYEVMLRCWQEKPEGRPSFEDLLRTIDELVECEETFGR
T5 sequence (P08631 whole entry): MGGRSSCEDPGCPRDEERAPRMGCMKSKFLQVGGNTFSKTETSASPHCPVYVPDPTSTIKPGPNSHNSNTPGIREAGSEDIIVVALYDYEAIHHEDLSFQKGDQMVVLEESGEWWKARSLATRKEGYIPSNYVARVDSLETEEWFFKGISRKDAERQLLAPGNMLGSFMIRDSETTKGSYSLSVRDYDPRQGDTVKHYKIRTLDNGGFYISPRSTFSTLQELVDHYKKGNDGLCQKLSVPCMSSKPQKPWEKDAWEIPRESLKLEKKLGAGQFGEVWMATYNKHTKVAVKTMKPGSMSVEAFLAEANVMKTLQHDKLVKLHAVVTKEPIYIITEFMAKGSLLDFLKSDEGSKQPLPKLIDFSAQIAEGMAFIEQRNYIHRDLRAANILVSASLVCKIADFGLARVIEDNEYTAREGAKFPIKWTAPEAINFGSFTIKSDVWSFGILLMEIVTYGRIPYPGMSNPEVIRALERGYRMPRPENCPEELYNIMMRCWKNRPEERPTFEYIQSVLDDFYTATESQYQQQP
T9 sequence (P31152 whole entry): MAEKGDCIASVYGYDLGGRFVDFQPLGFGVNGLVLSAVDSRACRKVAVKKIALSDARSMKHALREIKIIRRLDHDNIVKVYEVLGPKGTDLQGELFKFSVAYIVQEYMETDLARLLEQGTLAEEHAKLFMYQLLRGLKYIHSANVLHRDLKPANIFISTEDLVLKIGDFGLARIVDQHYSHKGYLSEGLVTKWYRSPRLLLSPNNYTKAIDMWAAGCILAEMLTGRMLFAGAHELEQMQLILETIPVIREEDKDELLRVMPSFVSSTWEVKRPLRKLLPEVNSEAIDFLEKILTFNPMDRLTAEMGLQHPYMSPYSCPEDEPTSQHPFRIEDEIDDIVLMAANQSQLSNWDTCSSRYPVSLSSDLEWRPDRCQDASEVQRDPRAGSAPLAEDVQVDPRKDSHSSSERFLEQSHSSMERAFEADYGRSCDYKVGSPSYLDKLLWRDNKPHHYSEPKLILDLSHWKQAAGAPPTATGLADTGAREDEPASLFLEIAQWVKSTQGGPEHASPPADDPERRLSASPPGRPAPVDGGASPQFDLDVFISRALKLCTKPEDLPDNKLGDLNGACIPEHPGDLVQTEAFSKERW

In the case of `CC(C)c1ccc(CC(=O)N2CCN(c3ccc(C#N)nn3)CC2)cc1` [PZ-2891, 6-(4-(2-(4-isopropylphenyl)acetyl)piperazin-1-yl)pyridazine-3-carbonitrile], the remaining binding at 10 µM was found to be 80% in assay [1]; 79% at TEC; 70% at STK39; 67% in [2]; 79% at HCK; 72% on PIKFYVE. In addition, the remaining binding at 10 µM on PIK3CD was 89%; at MST1R it was 73%; on ERK4 it was 97%; at AKT2 it was 85%; on BMPR1B, 60%.
